Measured values: patent US4225619A, “Substituted fluoracylresorcinols” (Boehringer Ingelheim GmBH, priority 1976, dated 1980)
Values after ≈ are worked out from the molar mass of the structure shown. Read-outs that look alike come from different tables or passages of the source.

Experiments:
Aspergillus niger [1] = assay: Agar diffusion test (hole-test); type: cell-based; settings: 168 h, 27° C. for 7 days, read-out: MIC, A.D.T., Aspergillus niger
Protocol: (§1) The inhibitory effect on bacteria and fungi was examined by the serial dilution test and the agar diffusion test (hole-test). As bacteria were used: Staphylococcus aureus SG 511, Streptococcus Aronson, Streptococcus pyogenes At CC 86 68; as fungi: Candida albicans AT CC 10231, Trichophyton mentagrophytes AT CC 9129 and Aspergillus niger.
(§2) 3. Sabouraud agar: for C. alb., Trich. ment., A. niger
(§3) The age of the primary cultures is 24 hours for bacteria and 14 days for fungi. The standardization of the suspension of microorganisms is effected using a photometer according to Eppendorf (test tube .phi.14 mm, filter 546 nm) and a suspension for comparison consisting of barium sulfate, this suspension being created by addition of 3.0 ml of 1% barium chloride solution to 97 ml of 1% sulfuric acid. After the standardization St. aureus SG 511 was diluted 1:1000 and Sc. pyogenes and Aronson 1:100 by means of sodium chloride solution. The fungi were used in an undiluted state.
(§4) 40 mgm of the substance were put into a 10 ml measuring flask and filled up to the mark with the solvent (corresponds to a dilution of 1:250=4000 μg/ml).
(§5) The dilutions to the concentrations under test were effected with distilled water or the respective solvent.
(§6) 19 ml of the nutrient medium were filled into sterile Petri dishes of a diameter of 8 cm and dried. Subsequently the agar plates were charged with 4 ml of seed agar. 100 ml of seed agar contain 1.25 ml of the suspension of microorganisms, an agar plate thus containing 0.05 ml of the suspension of microorganisms. After solidification of the agar, 5 holes of a diameter of 5 mm were punched into the plates and filled with 0.05 ml of the correspondingly concentrated substance solution.
(§7) Control tests merely using the solvent are to be carried out simultaneously.
(§8) Bacteria were incubated at 37° C. for 18-20 hours and fungi at 27° C. for 7 days.
(§9) The diameter of the area of inhibition in mm was measured after having deducted the diameter of the hole.

[2] = tested on: Candida albicans AT CC 10231; assay: Agar diffusion test (hole-test); type: cell-based; settings: ATCC10231, 168 h, 27° C. for 7 days, read-out: MIC, A.D.T., Candida albicans
Protocol: as §1, §2, §3, §4, §5, §6, §7, §8, §9

[3] = tested on: Trichophyton mentagrophytes AT CC 9129; assay: Agar diffusion test (hole-test); type: cell-based; settings: ATCC9129, 168 h, 27° C. for 7 days, read-out: MIC, A.D.T., Trichophyton mentagrophytes
Protocol: as §1, §2, §3, §4, §5, §6, §7, §8, §9

Aspergillus niger [4] = assay: Serial dilution test; type: cell-based; settings: Aspergillus niger, 168 h, 27° C. for 7 days, read-out: MIC, S.D.T., Aspergillus niger
Protocol: as §1
(§10) 3. Sabouraud broth: for C. alb., Trich. mnt., A. niger
(§11) The age of the primary cultures is 24 hours for bacteria and 14 days for fungi. The standardization of the suspension of microorganisms is effected using a photometer according to Eppendorf (test tube .phi.14 mm, filter 546 nm) and a suspension for comparison consisting of barium sulfate, this suspension being created by adition of 3.0 ml of 1% barium chloride solution to 97 ml of 1% sulfuric acid. After the standardization the bacteria were further diluted to a concentration of 1:1000 by means of sodium chloride solution, the fungi were used in an undiluted state.
(§12) 40 mgm of the substance were put into a 10 ml measuring flask and filled up to the mark with the solvent (corresponds to a dilution of 1:250=4000 μg/ml). The further dilution series was standardized with distilled water or the respective solvent and the following substance concentrations were prepared: 1000; 250; 62.5 μg/ml.
(§13) The tubes were filled with 4.9 ml of the corresponding liquid nutrient medium. Then 0.1 ml of the substance dilution prepared above was added to each tube, so that the mentioned final concentrations were present. Finally each tube was inoculated with 0.1 ml of the standardized suspension of microorganisms. Control tests merely using the solvent are to be carried out simultaneously.
as §8
(§14) The measurement is carried out macroscopically defining the minimal inhibitory concentration (the lowest still microbiostatically effective concentration).

[5] = tested on: Candida albicans AT CC 10231; assay: Serial dilution test; type: cell-based; settings: for MIC: Candida albicans, ATCC10231, 168 h, 27° C. for 7 days, read-out: MIC, S.D.T., Candida albicans
Protocol: as §1, §10, §11, §12, §13, §8, §14

[6] = tested on: Trichophyton mentagrophytes AT CC 9129; assay: Serial dilution test; type: cell-based; settings: ATCC9129, 168 h, 27° C. for 7 days, read-out: MIC, S.D.T., Trichophyton mentagrophytes
Protocol: as §1, §10, §11, §12, §13, §8, §14

[7] = tested on: Pityrosporum ovale CBS 1878; assay: Agar diffusion test for Pityrosporum ovale CBS 1878; type: cell-based; settings: Malassezia furfur, CBS1878, 168 h, 7 days at 27° C., read-out: MIC, A.D.T., Pityrosporum ovale
Protocol: Agar diffusion test for Pityrosporum ovale CBS 1878 Nutrient medium
Littmann's agar, 23 ml per Petri dish, diameter of dish 100 mm.
Suspension of microorganisms in 0.9% sodium chloride solution, standardized using a photometer according to Eppendorf by means of a suspension for comparison consisting of barium sulfate. 0.05 ml per plate were used. The test substances were dissolved in dimethyl sulfoxide. The incubation time was 7 days at 27° C.; the area of inhibition in mm was measured, 0.05 ml of the solution of the substance were used for each punch-hole of a diameter of 6 mm. The results of these tests are recorded in the following tables 1 and 2: […]

Pityrosporum ovale = assay: Serial dilution test for Pityrosporum ovale; type: cell-based; settings: Malassezia furfur, 168 h, 27° C. for 7 days, read-out: MIC, S.D.T., Pityrosporum ovale
Protocol: (§15) Serial dilution test for Corynebacterium acnes and Pityrosporum ovale Nutrient medium
(§16) For Corynebacterium acnes: thioglycolate-broth for Pityrosporum ovale: Littmann's broth, 5 ml per tube.
(§17) Suspension of microorganisms in 0.9% sodium chloride solution, standardized using a photometer according to Eppendorf by means of a suspension for comparison consisting of barium sulfate, for Corynebacterium acnes in a dilution of 1:100, for Pityrosporum ovale in an undiluted state. 0.1 ml of the suspensions was used per test tube. Dimethyl sulfoxide served as a solvent for the substances.
(§18) The suspension with Corynebacteria acnes was incubated at 37° C. for 48 hours, the suspension of Pityrosporum ovale at 27° C. for 7 days. The reading was effected by macroscopic evaluation of the growth of microorganisms and registration of the minimal inhibitory concentration.

HeLa-cell culture = assay: Inhibition of HeLa cell cultures; type: cell-based; settings: Homo sapiens, 72 h, 37° C. for 3 days, 5% carbon dioxide; for IC50: read-out: ED50, HeLa cell culture; for minimal effective concentration: read-out: Minimal inhibitory concentration, HeLa cell culture
Protocol: Measurement of the inhibition of cell cultures
HeLa-cell culture was treated with trypsin and adjusted to a cell number of 150,000 cells/ml of fresh medium. The substance was always dissolved in the same quantity of dimethyl sulfoxide and then further diluted with growth medium. 0.1 ml of the substance-dilutions were added to each well of microtiter plates and then 0.2 ml of cell suspension were added (4 wells per dilution). Several growth controls containing 0.1 ml of growth medium instead of 0.1 ml of substance dilution were put up. After careful mixing, the cultures were incubated at 37° C. for 3 days in a 5% carbon dioxide atmosphere. The reading was effected in comparison with these controls. The results were given as the percentage of the deficiency and degeneration compared to the growth control. […] The statements are referred to μg of substance per ml of total medium.

humans = settings: in some cases; cited from earlier work
[8] = tested on: Staphylococcus aureus SG 511; assay: Agar diffusion test (hole-test); type: cell-based; settings: SG511, 18-20 hours at 37° C., read-out: MIC, A.D.T., Staphylococcus aureus SG 511
Protocol: as §1
1. Meat extract agar: for St. aureus SG 511
as §3, §4, §5, §6, §7, §8, §9

[9] = tested on: Staphylococcus aureus SG 511; assay: Serial dilution test; type: cell-based; settings: Staphylococcus aureus, SG511, 18-20 hours at 37° C., read-out: MIC, S.D.T., Staphylococcus aureus SG 511
Protocol: as §1
1. Meat extract broth: for St. aureus SG 511
as §11, §12, §13, §8, §14

Streptococcus Aronson [10] = assay: Agar diffusion test (hole-test); type: cell-based; settings: 18-20 hours at 37° C., read-out: MIC, A.D.T., Streptococcus Aronson
Protocol: as §1
(§19) 2. Glucose agar: for Sc. Aronson and St. pyogenes Recipe see meat extract agar. After sterilization 1 weight percent of glucose is added as a sterile 50% solution.
as §3, §4, §5, §6, §7, §8, §9

[11] = tested on: Streptococcus pyogenes At CC 86 68; assay: Agar diffusion test (hole-test); type: cell-based; settings: ATCC8668, 18-20 hours at 37° C., read-out: MIC, A.D.T., Streptococcus pyogenes
Protocol: as §1, §19, §3, §4, §5, §6, §7, §8, §9

Streptococcus Aronson [12] = assay: Serial dilution test; type: cell-based; settings: Streptococcus, 18-20 hours at 37° C., read-out: MIC, S.D.T., Streptococcus Aronson
Protocol: as §1
(§20) 2. Glucose broth: for Sc. Aronson and St. pyogenes Recipe see meat extract broth. After sterilization 1 weight percent of glucose is added as a sterile 50% solution.
as §11, §12, §13, §8, §14

[13] = tested on: Streptococcus pyogenes At CC 86 68; assay: Serial dilution test; type: cell-based; settings: Streptococcus pyogenes, ATCC8668, 18-20 hours at 37° C., read-out: MIC, S.D.T., Streptococcus pyogenes
Protocol: as §1, §20, §11, §12, §13, §8, §14

Corynebacterium acnes = assay: Serial dilution test for Corynebacterium acnes; type: cell-based; settings: Cutibacterium acnes, 37° C. for 48 hours, read-out: MIC, S.D.T., Corynebacterium acnes
Protocol: as §15, §16, §17, §18

[14] = Acute toxicity in mice (LD50); settings: mouse, in vivo, death within 14 days
Protocol: The acute toxicity was determined with mice. The LD50, the dose leading to the death of 50% of the animals within 14 days, was calculated.

skin = assay: Compatibility on the skin under occlusion; type: in vivo; settings: cream containing 10%; over 24 hours under occlusion
[15] = ip, read-out: LD50 in the mouse, i.p.
[16] = po, read-out: LD50 in the mouse, p.o.
[17] = sc, read-out: LD50 in the mouse, s.c.

Row | MIC (Aspergillus niger [1]) | MIC [2] | MIC [3] | MIC (Aspergillus niger [4]) | MIC [5] | MIC [6] | MIC [7] | MIC (Pityrosporum ovale) | SMILES | IC50 (HeLa-cell culture) | minimal effective concentration (HeLa-cell culture) | MIC [8] | MIC [9] | MIC (Streptococcus Aronson [10]) | MIC [11] | MIC (Streptococcus Aronson [12]) | MIC [13] | MIC (Corynebacterium acnes) | LD50 at 336 h [14, 15] | LD50 at 336 h [14, 16] | LD50 at 336 h [14, 17] | further results
1 | 250 µg/mL (≈ 1040 µM) | 1000 µg/mL (≈ 4160 µM) | 250 µg/mL (≈ 1040 µM) | 20 µg/mL (≈ 83.1 µM) | 20 µg/mL (≈ 83.1 µM) | 5 µg/mL (≈ 20.8 µM) | 1000 µg/mL (≈ 4160 µM) | 10 µg/mL (≈ 41.6 µM) | O=C(c1cc(Cl)c(O)cc1O)C(F)(F)F [U, 2,4-Dihydroxy-5-chloro-trifluoroacetophenone] | – | – | – | – | – | – | – | – | – | – | – | – | –
2 | 250 µg/mL (≈ 722 µM) | 1000 µg/mL (≈ 2890 µM) | ≤ 15.6 µg/mL | 5 µg/mL (≈ 14.4 µM) | – | 1.25 µg/mL (≈ 3.61 µM) | 250 µg/mL (≈ 722 µM) | 80 µg/mL (≈ 231 µM) | CCCCCCCCCCc1cc(C(=O)C(F)(F)F)c(O)cc1O [W, 2,4-Dihydroxy-5-n-decyl-trifluoroacetophenone] | – | – | – | – | – | – | – | – | – | – | – | – | Concentration with reduced growth (value in brackets), S.D.T., Candida albicans ([5]; reduced growth at this concentration): 20 µg/mL
3 | > 4000 µg/mL | 4000 µg/mL (≈ 14800 µM) | 250 µg/mL (≈ 925 µM) | > 80 µg/mL | 80 µg/mL (≈ 296 µM) | 20 µg/mL (≈ 74 µM) | 4000 µg/mL (≈ 14800 µM) | 20 µg/mL (≈ 74 µM) | Cc1c(O)ccc(C(=O)C(F)(F)C(F)(F)F)c1O [V, 2,4-Dihydroxy-3-methyl-pentafluoropropiophenone] | 1.5 µg/mL (≈ 5.55 µM) | ≤ 0.78 µg/mL | – | – | – | – | – | – | – | – | – | – | –
4 | – | – | – | – | – | – | – | – | CCCCCCc1ccc(O)cc1O [hexyl-resorcinol] | – | – | – | – | – | – | – | – | – | – | – | – | allergies in humans (humans): in some cases cause allergies in humans
5 | – | – | – | – | – | – | – | – | CC(C)c1cc(C(=O)C(F)(F)F)c(O)c(Cc2c(O)c(C(=O)C(F)(F)F)cc(C(C)C)c2O)c1O [Compound Q, Methylene-bis-(2,6-dihydroxy-3-isopropyl-5-trifluoro-acetyl)-benzene] | – | – | ≤ 15.6 µg/mL | 0.08 µg/mL (≈ 0.157 µM) | ≤ 15.6 µg/mL | ≤ 15.6 µg/mL | 1.25 µg/mL (≈ 2.46 µM) | 0.001 µg/mL (≈ 0.00197 µM) | 0.02 µg/mL (≈ 0.0393 µM) | 400 mg/kg | > 4000 mg/kg | > 2 mg/kg | –
6 | – | – | – | – | – | – | – | – | CCCCCCc1cc(C(=O)C(F)(F)F)c(O)cc1O [Compound E, 2,4-Dihydroxy-5-n-hexyl-trifluoroacetophenone] | 5.81 µg/mL (≈ 20 µM) | 0.78 µg/mL | ≤ 15.6 µg/mL | 1.25 µg/mL (≈ 4.31 µM) | ≤ 15.6 µg/mL | ≤ 15.6 µg/mL | 0.31 µg/mL (≈ 1.07 µM) | 0.31 µg/mL (≈ 1.07 µM) | 0.08 µg/mL (≈ 0.276 µM) | 82 mg/kg | > 3200 mg/kg | > 4000 mg/kg | compatibility on the skin (skin): tolerated without irritation
